Results published in PubChem BioAssay (NCI).
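Here, GI50 denotes the concentration required for 50% inhibition of growth. TGI is the concentration that stops growth completely.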

Key:
Test in all cases: growth of human tumour cells (NCI), 384-well format
OVCAR-5 ovarian = test system: OVCAR-5 ovarian
DU-145 prostate = test system: DU-145 prostate
U251 glioblastoma = test system: U251 glioblastoma
OVCAR-8 ovarian = test system: OVCAR-8 ovarian
OVCAR-4 ovarian = test system: OVCAR-4 ovarian
UACC-62 melanoma = test system: UACC-62 melanoma
UACC-257 melanoma = test system: UACC-257 melanoma
SR leukemia = test system: SR leukemia
786-0 renal = test system: 786-0 renal
MCF7 breast = test system: MCF7 breast
MOLT-4 leukemia = test system: MOLT-4 leukemia
NCI-H226 lung = test system: NCI-H226 lung
A549 NSCLC = test system: A549 NSCLC
A498 renal = test system: A498 renal
SK-MEL-28 melanoma = test system: SK-MEL-28 melanoma
NCI/ADR-RES ovarian = test system: NCI/ADR-RES ovarian
RPMI-8226 leukemia = test system: RPMI-8226 leukemia
CAKI-1 renal = test system: CAKI-1 renal
SF-539 CNS = test system: SF-539 CNS
SK-MEL-2 melanoma = test system: SK-MEL-2 melanoma
HOP-62 NSCLC = test system: HOP-62 NSCLC
RXF 393 renal = test system: RXF 393 renal
MALME-3M melanoma = test system: MALME-3M melanoma
HCC-2998 colon = test system: HCC-2998 colon
TK-10 renal = test system: TK-10 renal
CCRF-CEM leukemia = test system: CCRF-CEM leukemia
NCI-H23 lung = test system: NCI-H23 lung
SK-OV-3 ovarian = test system: SK-OV-3 ovarian
NCI-H522 lung = test system: NCI-H522 lung
SF-268 CNS = test system: SF-268 CNS
SF-295 CNS = test system: SF-295 CNS
NCI-H460 NSCLC = test system: NCI-H460 NSCLC
SW-620 colon = test system: SW-620 colon
MDA-MB-231 breast = test system: MDA-MB-231 breast
ACHN renal = test system: ACHN renal
T-47D breast = test system: T-47D breast
SN12C renal = test system: SN12C renal
PC-3 prostate = test system: PC-3 prostate
MDA-MB-468 breast = test system: MDA-MB-468 breast
SNB-19 CNS = test system: SNB-19 CNS
HT29 colon = test system: HT29 colon
EKVX NSCLC = test system: EKVX NSCLC
BT-549 breast = test system: BT-549 breast
HS 578T breast = test system: HS 578T breast
NCI-H322M lung = test system: NCI-H322M lung
SNB-75 CNS = test system: SNB-75 CNS
M14 melanoma = test system: M14 melanoma
IGROV1 ovarian = test system: IGROV1 ovarian
OVCAR-3 ovarian = test system: OVCAR-3 ovarian
COLO 205 colon = test system: COLO 205 colon
MDA-MB-435 melanoma = test system: MDA-MB-435 melanoma
SK-MEL-5 melanoma = test system: SK-MEL-5 melanoma
HCT-15 colon = test system: HCT-15 colon
HL-60(TB) leukemia = test system: HL-60(TB) leukemia
KM12 colon = test system: KM12 colon
HOP-92 NSCLC = test system: HOP-92 NSCLC

Q: How did the GI50 (OVCAR-5 ovarian) turn out when `CN1CCc2cc3c(cc2C1O)OCO3` (configuration not stated) was run?
A: > 100 µM

Q: What about the TGI (OVCAR-5 ovarian) of the same compound?
A: > 100 µM

Q: What about the GI50 (DU-145 prostate) of the same compound?
A: > 100 µM

Q: And the TGI (DU-145 prostate)?
A: > 100 µM

Q: What about the GI50 (U251 glioblastoma) of the same compound?
A: > 100 µM

Q: And the TGI (U251 glioblastoma)?
A: > 100 µM

Q: What about the GI50 (OVCAR-8 ovarian) of the same compound?
A: > 100 µM

Q: And the TGI (OVCAR-8 ovarian)?
A: > 100 µM

Q: And the GI50 (OVCAR-4 ovarian)?
A: > 100 µM

Q: What about the TGI (OVCAR-4 ovarian) of the same compound?
A: > 100 µM

Q: And the GI50 (UACC-62 melanoma)?
A: > 100 µM

Q: And the TGI (UACC-62 melanoma)?
A: > 100 µM

Q: What about the GI50 (UACC-257 melanoma) of the same compound?
A: > 100 µM

Q: What about the TGI (UACC-257 melanoma) of the same compound?
A: > 100 µM

Q: What about the GI50 (SR leukemia) of the same compound?
A: > 100 µM

Q: And the TGI (SR leukemia)?
A: > 100 µM

Q: What about the GI50 (786-0 renal) of the same compound?
A: > 100 µM

Q: And the TGI (786-0 renal)?
A: > 100 µM

Q: And the GI50 (MCF7 breast)?
A: > 100 µM

Q: What about the TGI (MCF7 breast) of the same compound?
A: > 100 µM

Q: What about the GI50 (MOLT-4 leukemia) of the same compound?
A: > 100 µM

Q: And the TGI (MOLT-4 leukemia)?
A: > 100 µM

Q: What about the GI50 (NCI-H226 lung) of the same compound?
A: > 100 µM

Q: And the TGI (NCI-H226 lung)?
A: > 100 µM

Q: And the GI50 (A549 NSCLC)?
A: > 100 µM

Q: What about the TGI (A549 NSCLC) of the same compound?
A: > 100 µM

Q: And the GI50 (A498 renal)?
A: > 100 µM

Q: And the TGI (A498 renal)?
A: > 100 µM

Q: What about the GI50 (SK-MEL-28 melanoma) of the same compound?
A: > 100 µM

Q: And the TGI (SK-MEL-28 melanoma)?
A: > 100 µM

Q: And the GI50 (NCI/ADR-RES ovarian)?
A: > 100 µM

Q: And the TGI (NCI/ADR-RES ovarian)?
A: > 100 µM

Q: And the GI50 (RPMI-8226 leukemia)?
A: > 100 µM

Q: And the TGI (RPMI-8226 leukemia)?
A: > 100 µM

Q: What about the GI50 (CAKI-1 renal) of the same compound?
A: > 100 µM

Q: And the TGI (CAKI-1 renal)?
A: > 100 µM

Q: What about the GI50 (SF-539 CNS) of the same compound?
A: > 100 µM

Q: And the TGI (SF-539 CNS)?
A: > 100 µM

Q: What about the GI50 (SK-MEL-2 melanoma) of the same compound?
A: > 100 µM

Q: And the TGI (SK-MEL-2 melanoma)?
A: > 100 µM

Q: What about the GI50 (HOP-62 NSCLC) of the same compound?
A: > 100 µM

Q: What about the TGI (HOP-62 NSCLC) of the same compound?
A: > 100 µM

Q: And the GI50 (RXF 393 renal)?
A: > 100 µM

Q: And the TGI (RXF 393 renal)?
A: > 100 µM

Q: What about the GI50 (MALME-3M melanoma) of the same compound?
A: > 100 µM

Q: What about the TGI (MALME-3M melanoma) of the same compound?
A: > 100 µM

Q: And the GI50 (HCC-2998 colon)?
A: > 100 µM

Q: And the TGI (HCC-2998 colon)?
A: > 100 µM

Q: And the GI50 (TK-10 renal)?
A: > 100 µM

Q: What about the TGI (TK-10 renal) of the same compound?
A: > 100 µM

Q: And the GI50 (CCRF-CEM leukemia)?
A: > 100 µM

Q: What about the TGI (CCRF-CEM leukemia) of the same compound?
A: > 100 µM

Q: What about the GI50 (NCI-H23 lung) of the same compound?
A: > 100 µM

Q: And the TGI (NCI-H23 lung)?
A: > 100 µM

Q: And the GI50 (SK-OV-3 ovarian)?
A: > 100 µM

Q: And the TGI (SK-OV-3 ovarian)?
A: > 100 µM

Q: What about the GI50 (NCI-H522 lung) of the same compound?
A: > 100 µM

Q: What about the TGI (NCI-H522 lung) of the same compound?
A: > 100 µM

Q: And the GI50 (SF-268 CNS)?
A: > 100 µM

Q: What about the TGI (SF-268 CNS) of the same compound?
A: > 100 µM

Q: And the GI50 (SF-295 CNS)?
A: > 100 µM

Q: What about the TGI (SF-295 CNS) of the same compound?
A: > 100 µM

Q: What about the GI50 (NCI-H460 NSCLC) of the same compound?
A: > 100 µM

Q: And the TGI (NCI-H460 NSCLC)?
A: > 100 µM

Q: And the GI50 (SW-620 colon)?
A: > 100 µM

Q: And the TGI (SW-620 colon)?
A: > 100 µM

Q: What about the GI50 (MDA-MB-231 breast) of the same compound?
A: > 100 µM

Q: What about the TGI (MDA-MB-231 breast) of the same compound?
A: > 100 µM

Q: And the GI50 (ACHN renal)?
A: > 100 µM

Q: What about the TGI (ACHN renal) of the same compound?
A: > 100 µM

Q: And the GI50 (T-47D breast)?
A: > 100 µM

Q: And the TGI (T-47D breast)?
A: > 100 µM

Q: And the GI50 (SN12C renal)?
A: > 100 µM

Q: What about the TGI (SN12C renal) of the same compound?
A: > 100 µM

Q: And the GI50 (PC-3 prostate)?
A: > 100 µM

Q: What about the TGI (PC-3 prostate) of the same compound?
A: > 100 µM

Q: And the GI50 (MDA-MB-468 breast)?
A: > 100 µM

Q: And the TGI (MDA-MB-468 breast)?
A: > 100 µM

Q: And the GI50 (SNB-19 CNS)?
A: > 100 µM

Q: What about the TGI (SNB-19 CNS) of the same compound?
A: > 100 µM

Q: What about the GI50 (HT29 colon) of the same compound?
A: > 100 µM

Q: What about the TGI (HT29 colon) of the same compound?
A: > 100 µM

Q: What about the GI50 (EKVX NSCLC) of the same compound?
A: > 100 µM

Q: And the TGI (EKVX NSCLC)?
A: > 100 µM

Q: And the GI50 (BT-549 breast)?
A: > 100 µM

Q: What about the TGI (BT-549 breast) of the same compound?
A: > 100 µM

Q: And the GI50 (HS 578T breast)?
A: > 100 µM

Q: And the TGI (HS 578T breast)?
A: > 100 µM

Q: What about the GI50 (NCI-H322M lung) of the same compound?
A: > 100 µM

Q: And the TGI (NCI-H322M lung)?
A: > 100 µM

Q: And the GI50 (SNB-75 CNS)?
A: > 100 µM

Q: And the TGI (SNB-75 CNS)?
A: > 100 µM

Q: What about the GI50 (M14 melanoma) of the same compound?
A: > 100 µM

Q: And the TGI (M14 melanoma)?
A: > 100 µM

Q: What about the GI50 (IGROV1 ovarian) of the same compound?
A: > 100 µM

Q: What about the TGI (IGROV1 ovarian) of the same compound?
A: > 100 µM

Q: What about the GI50 (OVCAR-3 ovarian) of the same compound?
A: > 100 µM

Q: And the TGI (OVCAR-3 ovarian)?
A: > 100 µM

Q: What about the GI50 (COLO 205 colon) of the same compound?
A: > 100 µM

Q: And the TGI (COLO 205 colon)?
A: > 100 µM

Q: And the GI50 (MDA-MB-435 melanoma)?
A: > 100 µM

Q: What about the TGI (MDA-MB-435 melanoma) of the same compound?
A: > 100 µM

Q: And the GI50 (SK-MEL-5 melanoma)?
A: > 100 µM

Q: What about the TGI (SK-MEL-5 melanoma) of the same compound?
A: > 100 µM

Q: And the GI50 (HCT-15 colon)?
A: > 100 µM

Q: And the TGI (HCT-15 colon)?
A: > 100 µM

Q: And the GI50 (HL-60(TB) leukemia)?
A: > 100 µM

Q: What about the TGI (HL-60(TB) leukemia) of the same compound?
A: > 100 µM

Q: What about the GI50 (KM12 colon) of the same compound?
A: > 100 µM

Q: What about the TGI (KM12 colon) of the same compound?
A: > 100 µM

Q: What about the GI50 (HOP-92 NSCLC) of the same compound?
A: > 100 µM

Q: What about the TGI (HOP-92 NSCLC) of the same compound?
A: > 100 µM
